Experimental data as given in patent US20250129018A1, “PLEUROMUTILIN DERIVATIVES CONTAINING CYCLOALKYL GROUP AND PREPARATION METHODS AND APPLICATIONS THEREOF” (priority 2023, published 2025).
Values after ≈ are worked out from the molar mass of the structure shown. Like-named read-outs stand apart in the source and are kept apart here.

Legend:
[1] = system: E. coli-25922; assay: MIC, two-fold serial dilution method; format: cell-based, Escherichia coli; conditions: for MIC: Escherichia coli, read-out: minimum inhibitory concentration
Description: (§1) The pleuromutilin derivatives 1-4 prepared from Example 9 of the present disclosure were determined for their effect on Methicillin-resistant Staphylococcus aureus, Methicillin-resistant Staphylococcus epidermidis, standard strains of Staphylococcus aureus (S. aureus-29213 and S. aureus-25923), clinical strains 1-48 of S. aureus, Escherichia coli, S. agalactiae and S. dysgalactiae equisimilis (S. dysgalactiae-1, S. dysgalactiae-2, S. dysgalactiae-3) and minimum inhibitory concentration (MIC) using a two-fold serial dilution method, and the results were shown in Table 1, Table 2 and Table 3. The standard strains are commercially available from ATCC, and the clinical strains are preserved by Lanzhou Institute of Husbandry and Pharmaceutical Science of Chinese Academy of Agricultural Sciences (Lanzhou, Gansu, China).

[2] = system: S. agalactiae-1; assay: MIC, two-fold serial dilution method; format: cell-based; conditions: for MIC: Streptococcus agalactiae, read-out: minimum inhibitory concentration
Description: as §1

[3] = system: MRSA-337371; assay: MIC, two-fold serial dilution method; format: cell-based, Methicillin-resistant Staphylococcus aureus; conditions: for MIC: Staphylococcus aureus, read-out: minimum inhibitory concentration
Description: as §1

[4] = system: S. aureus-24; assay: MIC, clinical strain; format: cell-based, Staphylococcus aureus
Description: as §1

[5] = system: S. aureus-7; assay: MIC, clinical strain; format: cell-based, Staphylococcus aureus
Description: as §1

[6] = system: S. aureus-21; assay: MIC, clinical strain; format: cell-based, Staphylococcus aureus
Description: as §1

[7] = system: S. aureus-3; assay: MIC, clinical strain; format: cell-based, Staphylococcus aureus
Description: as §1

[8] = system: S. aureus-20; assay: MIC, clinical strain; format: cell-based, Staphylococcus aureus
Description: as §1

[9] = system: S. aureus-2; assay: MIC, clinical strain; format: cell-based, Staphylococcus aureus
Description: as §1

[10] = system: S. aureus-10; assay: MIC, clinical strain; format: cell-based, Staphylococcus aureus
Description: as §1

[11] = system: S. aureus-46; assay: MIC, clinical strain; format: cell-based, Staphylococcus aureus
Description: as §1

[12] = system: S. aureus-40; assay: MIC, clinical strain; format: cell-based, Staphylococcus aureus
Description: as §1

[13] = system: S. aureus-41; assay: MIC, clinical strain; format: cell-based, Staphylococcus aureus
Description: as §1

[14] = system: S. aureus-34; assay: MIC, clinical strain; format: cell-based, Staphylococcus aureus
Description: as §1

[15] = system: S. aureus-22; assay: MIC, clinical strain; format: cell-based, Staphylococcus aureus
Description: as §1

[16] = system: S. aureus-19; assay: MIC, clinical strain; format: cell-based, Staphylococcus aureus
Description: as §1

[17] = system: S. aureus-17; assay: MIC, clinical strain; format: cell-based, Staphylococcus aureus
Description: as §1

[18] = system: S. aureus-47; assay: MIC, clinical strain; format: cell-based, Staphylococcus aureus
Description: as §1

[19] = system: S. aureus-4; assay: MIC, clinical strain; format: cell-based, Staphylococcus aureus
Description: as §1

[20] = system: S. aureus-37; assay: MIC, clinical strain; format: cell-based, Staphylococcus aureus
Description: as §1

[21] = system: S. aureus-9; assay: MIC, clinical strain; format: cell-based, Staphylococcus aureus
Description: as §1

[22] = system: S. aureus-32; assay: MIC, clinical strain; format: cell-based, Staphylococcus aureus
Description: as §1

[23] = system: S. aureus-45; assay: MIC, clinical strain; format: cell-based, Staphylococcus aureus
Description: as §1

[24] = system: S. aureus-28; assay: MIC, clinical strain; format: cell-based, Staphylococcus aureus
Description: as §1

[25] = system: S. aureus-6; assay: MIC, clinical strain; format: cell-based, Staphylococcus aureus
Description: as §1

[26] = system: S. aureus-27; assay: MIC, clinical strain; format: cell-based, Staphylococcus aureus
Description: as §1

[27] = system: S. aureus-11; assay: MIC, clinical strain; format: cell-based, Staphylococcus aureus
Description: as §1

[28] = system: S. aureus-39; assay: MIC, clinical strain; format: cell-based, Staphylococcus aureus
Description: as §1

[29] = system: S. aureus-31; assay: MIC, clinical strain; format: cell-based, Staphylococcus aureus
Description: as §1

[30] = system: S. aureus-29; assay: MIC, clinical strain; format: cell-based, Staphylococcus aureus
Description: as §1

Row | Compound | in vitro minimum inhibitory concentration [4] | in vitro minimum inhibitory concentration [5] | in vitro minimum inhibitory concentration [7] | in vitro minimum inhibitory concentration [9] | in vitro minimum inhibitory concentration [10] | in vitro minimum inhibitory concentration [11] | in vitro minimum inhibitory concentration [12] | in vitro minimum inhibitory concentration [13] | in vitro minimum inhibitory concentration [14] | in vitro minimum inhibitory concentration [16] | in vitro minimum inhibitory concentration [17] | in vitro minimum inhibitory concentration [18] | in vitro minimum inhibitory concentration [19] | in vitro minimum inhibitory concentration [20] | in vitro minimum inhibitory concentration [21] | in vitro minimum inhibitory concentration [22] | in vitro minimum inhibitory concentration [23] | in vitro minimum inhibitory concentration [24] | in vitro minimum inhibitory concentration [25] | in vitro minimum inhibitory concentration [26] | other results
1 | C=CC1(C)CC(OC(=O)CSC(C)(C)CNC(=O)C2CCC2)C2(C)C(C)CCC3(CCC(=O)C32)C(C)C1O (stereo not drawn) [derivative 2] | 0.063 | 0.063 | 0.031 | 0.063 | 0.063 | 0.063 | 0.016 | 0.031 | 0.063 | 0.125 | 0.063 | 0.063 | 0.063 | 0.063 | 0.063 | 0.063 | 0.125 | 0.063 | 0.031 | 0.031 | minimum inhibitory concentration ([1]; E. coli-25922): >16 µg/mL; minimum inhibitory concentration ([2]; S. agalactiae-1): 0.031 µg/mL (≈ 0.0566 µM); minimum inhibitory concentration ([3]; MRSA-337371): 0.031 µg/mL (≈ 0.0566 µM); in vitro minimum inhibitory concentration ([6]; in µg/mL): 0.063; in vitro minimum inhibitory concentration ([8]; in µg/mL): 0.063; in vitro minimum inhibitory concentration ([15]; in µg/mL): 0.063; in vitro minimum inhibitory concentration [27]: 0.063; in vitro minimum inhibitory concentration [28]: 0.016; in vitro minimum inhibitory concentration [29]: 0.031; in vitro minimum inhibitory concentration [30]: 0.031
2 | C=C[C@]1(C)C[C@@H](OC(=O)CSCCN(CC)CC)[C@]2(C)[C@H](C)CC[C@]3(CCC(=O)[C@H]32)[C@@H](C)[C@@H]1O [Tiamulin] | 0.25 | 1 | 0.5 | 0.5 | 0.5 | 1 | 1 | 0.5 | 0.5 | 0.5 | 0.5 | 0.5 | 0.5 | 0.5 | 0.5 | 1 | 1 | 1 | 0.25 | 0.5 | MIC ([1]; E. coli-25922): > 16 µg/mL; MIC ([2]; S. agalactiae-1): 0.25 µg/mL (≈ 0.506 µM); MIC ([3]; MRSA-337371): 0.25 µg/mL (≈ 0.506 µM); in vitro minimum inhibitory concentration [6]: 0.5 µg/mL; in vitro minimum inhibitory concentration [8]: 0.5 µg/mL; in vitro minimum inhibitory concentration [15]: 0.5 µg/mL; in vitro minimum inhibitory concentration [27]: 0.5; in vitro minimum inhibitory concentration [28]: 0.25; in vitro minimum inhibitory concentration [29]: 0.5; in vitro minimum inhibitory concentration [30]: 1
3 | C=C[C@]1(C)C[C@@H](OC(=O)CSC(C)(C)CNC(=O)[C@H](N)C(C)C)[C@]2(C)[C@H](C)CC[C@]3(CCC(=O)[C@H]32)[C@@H](C)[C@@H]1O [Valnemulin] | 0.063 | 0.063 | 0.063 | 0.25 | 0.063 | 0.063 | 0.063 | 0.063 | 0.063 | 0.063 | 0.063 | 0.063 | 0.125 | 0.063 | 0.063 | 0.063 | 0.25 | 0.063 | 0.063 | 0.063 | MIC [1]: 16 µg/mL (≈ 28.3 µM); MIC [2]: 0.031 µg/mL (≈ 0.0549 µM); MIC ([3]; MRSA): 0.031 µg/mL (≈ 0.0549 µM); in vitro minimum inhibitory concentration ([6]; in µg/mL): 0.125; in vitro minimum inhibitory concentration ([8]; in µg/mL): 0.125; in vitro minimum inhibitory concentration [15]: 0.25 µg/mL; in vitro minimum inhibitory concentration [27]: 0.063; in vitro minimum inhibitory concentration [28]: 0.125; in vitro minimum inhibitory concentration [29]: 0.063; in vitro minimum inhibitory concentration [30]: 0.063
